Assay results from patent US20210113482A1, “Poly (Alkyl Cyanoacrylate) Nanoparticles for Use in Treatment of Cancer” (Sintef TTO AS, priority 2018, published 2021).
Read-outs that look alike come from different tables or passages of the source.

Assays:
MDA-MB-231 tumors = test: Treatment efficacy in mice bearing MDA-MB-231 tumors; type: in vivo; conditions: 2×15 mg CBZ/kg i.v.
Experimental: (§1) Treatment efficacy evaluation in nude mice.
(§2) The ortothopically growing basal-like xenograft model MAS98.12 has been established in house and was used as previously described in Lindholm et al (2012). When using the MDA-MB-231 cell line, 1.5 million cells were injected into the mammary fat pad and growing tumors were used for sequential implantation. As for the MAS98.12 model, 1-2 mm^3 pieces of healthy tumor tissue were implanted bilaterally into the mammary fat pad of female athymic mice. After the tumors reached approximately 5 mm in diameter, the mice were randomly assigned to the different treatment groups (the average volume of each group was 49-57 mm^3).

[1] = Pharmacokinetics in blood: CBZ in plasma by LC-MS/MS in MAS98.12 bearing mice; type: in vivo; conditions: female, athymic nude foxn1nu, mouse, iv, 15 mg/kg, 15 mg/kg i.v.
Experimental: (§3) CBZ quantification by LC-MS/MS. CBZ, as the pure chemical or part of NPs, was quantified by LC-MS/MS, using an Agilent 1290 HPLC system coupled to an Agilent 6490 triple quadrupole mass spectrometer. The HPLC column was an Ascentis Express C8, 75×2.1 mm, 2.7 μm particles size with a 5×2.1 mm guard column of the same material (Sigma), run at 40° C. Eluent A was 25 mM formic acid in water and eluent B was 100% methanol, and flow rate was 0.5 ml/min. The mobile phase gradient was isocratic at 55% B for 1.5 min, then from 55% to 80% B over 1 min, followed by 1 min washout time and subsequently column re-equilibration. Injection volume was 5.00 μl. MS detection was in positive ESI mode (Agilent Jetstream) quantified in multiple reaction monitoring (MRM) mode using the transition m/z 858.3→577.2. The parent ion was chosen to be the Na adduct as this gave the best sensitivity. Similarly, the hexadeuterated internal standard was detected on the 864.4→583.2 transition. Both analytes were run at 380 V fragmentor and 20 V collision energy.
Processing of tissue samples before LC-MS/MS analyses. In order to process the tissue samples such that their CBZ content could be quantified, we developed a protocol for enzymatic digestion of tissue followed by extraction and quantification of CBZ using the LC-MS/MS method described above. […]

[2] = tested on: CD68 (whole macrophage population); test: Macrophage infiltration in treated MAS98.12 tumors, immunohistochemistry with anti-CD68; type: in vivo, mice; conditions: 96 h after single injection; compared to free CBZ or saline; not statistically significant
Experimental: (§4) Immunohistochemistry. Tumors from MAS98.12 bearing mice were collected 96 h after a single injection of the same substances as were injected in the MAS98.12 efficacy study. The tumors were preserved in 4% (v/v) formalin and then paraffinized and sliced to prepare consecutive slides (3 μm thick). The deparaffinization agent Neo-clear and mounting agent Neo-mount were obtained from VWR (Radnor, Pa., USA). Heat induced epitope retrieval was performed by placing deparaffinized slides with 10 mM sodium citrate buffer (pH 6.0) in water bath for 20 min at 100° C. Endogenous peroxidase activity was blocked by incubating slides with 3% (v/v) hydrogen peroxide in Tris-buffered saline (TBS; 50 mM Tris-Cl, 150 mM NaCl, pH 7.6). Sections were washed and blocking of non-specific binding was performed with 3% (w/v) bovine serum albumin (Roche diagnostics GmbH, Mannheim, Germany) in TBS for 30 min. Sections were then incubated for 60 min with the primary antibodies. […]
(§5) Stained tissue sections were scanned (NanoZoomer HT, Hamamatsu Photonics, Hamamatsu, Japan) using a 40× objective. The extent of CD68, iNOS and CD206 was automatically scored using the ImmunoPath software (Room4 Ltd., Crowborough, UK). […] The annotated representative areas were analyzed further by computerized image analysis. […]

[3] = tested on: MAS98.12 patient derived xenograft (PDX) breast tumor, basal-like; test: Treatment efficacy in mice bearing MAS98.12 patient derived xenograft; type: in vivo
Experimental: as §1, §2
Statistical analyses. To calculate the significance in the efficacy studies, the area under the curve was calculated for each tumor and the mean values of the groups were compared using the Welch unequal variance. To determine whether there is a significant difference between the frequencies of the tumor regression in the different treatment groups, we used the Fischer's exact test. If not stated otherwise, an unpaired two-sided Student t-test without Welch correction was used. The statistical analyses were performed using either GraphPad Prism (version 7.00 for Windows, GraphPad Software, La Jolla, Calif., US) or Microsoft Excel.

[4] = Biodistribution: CBZ in tumor and organs by LC-MS/MS in MAS98.12 bearing mice; type: in vivo; conditions: 15 mg/kg i.v.
Experimental: as §3
Processing of tissue samples before LC-MS/MS analyses. In order to process the tissue samples such that their CBZ content could be quantified, we developed a protocol for enzymatic digestion of tissue followed by extraction and quantification of CBZ using the LC-MS/MS method described above. The enzyme buffer consisted of Dulbecco's Modified Eagle Medium (DMEM, Thermo Fisher Scientific, USA, 41965039) with 1% (v/v) penicillin-streptomycin stock solution (Sigma-Aldrich, P0781) to a final concentration of 100 U/ml penicillin and 100 μg/ml streptomycin, 0.125 mg/ml papain (Merck, F275644), 2.5 mg/ml trypsin (Sigma-Aldrich, T7409), 0.8 mg/ml collagenase (Sigma-Aldrich, C7926), 0.69 mg/ml hyaluronidase (Sigma-Aldrich, H3506) and 1% (v/v) Triton X-100 (Sigma-Aldrich, T-8787). To determine the biodistribution of CBZ, frozen organs (liver, spleen, lymph nodes, kidneys, tumors) were thawed and freshly prepared enzyme buffer was added at 1 ml per 50 mg tissue; the entire organs were digested. The samples were heated to 37° C. for 72 h with vortexing once a day, until the tissue was completely dissolved. The tissue digests, as well as the plasma samples from the animals, were diluted 10× in acetone before centrifugation; this has the dual effect of both precipitating proteins and other macromolecules, thus cleaning up the sample, and making sure all CBZ is solubilized. Internal standard (hexadeuterated CBZ) dissolved in acetone was added to a final concentration of 10 ng/ml during the acetone dilution to correct for possible matrix effects.
Biodistribution and pharmacokinetics in blood. Blood and tissue samples were obtained following a single i.v. injection of PEBCA-CBZ and non-encapsulated CBZ (15 mg/kg) into the tail vein of mice bearing the MAS98.12 tumor (n=3). Empty particles (PEBCA) and saline were used as negative controls. The blood samples were taken either per tail vein puncture (approximately after 2 min and thereafter at 1, 4 and 24 h after injection) or by terminal cardiac puncture (96 h after injection) in Vacutainer tubes containing EDTA (BD Biosciences, San Jose, Calif., USA) and kept on ice. The 0-24 h samples were collected consecutively from the same animals (n=3) while samples after 96 h were obtained from separate mice (n=3). The blood was centrifuged for 15 min at 4° C. and 3400×g, and the supernatant plasma was collected and stored at −80° C. until LC-MS/MS analysis. […]

[5] = tested on: CD206 (M2, pro-tumorigenic anti-inflammatory macrophages); test: Macrophage infiltration in treated MAS98.12 tumors, immunohistochemistry with anti-CD206; type: in vivo, mice; conditions: 96 h after single injection
Experimental: as §4, §5

[6] = tested on: iNOS (M1, anti-tumorigenic pro-inflammatory macrophages); test: Macrophage infiltration in treated MAS98.12 tumors, immunohistochemistry with anti-iNOS; type: in vivo, mice; conditions: 96 h after single injection
Experimental: as §4, §5

[7] = tested on: MDA-MB-231, MDA-MB-468 and MCF-7 cells; test: In vitro cellular toxicity: MTT cell viability (72 h) and [3H]thymidine incorporation (24 h) in three breast cancer cell lines; type: cell-based, human; conditions: MTT assay, 72 h incubation, all cell lines
Experimental: Cell lines. Three breast cancer cell lines were used in this study. The MDA-MB-231 (triple negative; Claudin low), was cultured in RPMI 1640; the MDA-MB-468 (triple negative; basal) and the MCF-7 (luminal A) cell lines were cultured in DMEM. All medium was fortified with 10% (w/v) fetal calf serum albumin (Sigma) and 100 units/ml penicillin/streptomycin (PenStrep®, Sigma). All cell lines were obtained from ATCC and were routinely tested for mycoplasma. Cells growing in 24- or 96-well plates were incubated with serial dilutions of PEBCA-CBZ, CBZ (non-encapsulated CBZ) dissolved in Tween-80 (Fluka)), and PEBCA without CBZ for 24, 48 or 72 h at 37° C. in an atmosphere of 5% CO2. The toxicity was assessed either by the commonly used MTT (3-(4,5-dimethylthiazol-2-yl)-2,5-diphenyltetrazolium bromide) cell viability assay, by measuring cell proliferation based on [^3H]thymidine incorporation, by measuring protein synthesis by incorporation of [^3H]leucine and by measuring ATP levels using CellTiter Glo®.
MTT cell viability assay. […] The absorbance was read in a plate reader (Biosys Ltd, Essex, UK) at 570 nm, and background from absorbance at 650 nm was subtracted.
Cell proliferation measured by [^3H]thymidine incorporation. […] The radioactivity was counted for 1 min in a scintillation counter (Tri-Carb 2100TR, Packard Bioscience, USA).

**Q.** For `CO[C@H]1C(=O)[C@]2(C)[C@@H](OC)C[C@H]3OC[C@@]3(OC(C)=O)[C@H]2[C@H](OC(=O)c2ccccc2)[C@]2(O)C[C@H](OC(=O)[C@H](O)[C@@H](NC(=O)OC(C)(C)C)c3ccccc3)C(C)=C1C2(C)C` [CBZ, cabazitaxel], which Tumor growth (MDA-MB-231 tumors) is on record?
**A.** a delay in tumor growth was observed

**Q.** And the “efficacy compared to MAS98.12” value (MDA-MB-231 tumors)?
**A.** less effective

**Q.** What about the half-life ([1]; from mean values of the two last time points (24 and 96 h), read-out: elimination half-life (converted)) of the same compound?
**A.** ~60 h

**Q.** What about the half-life ([1]; interpolation of the two first data points (up to 1 hr), read-out: distribution half-life) of the same compound?
**A.** ~0.5 h

**Q.** And the “total tumor infiltrating macrophages (CD68)” value [2]?
**A.** no response in the macrophage populations

**Q.** What about the Tumor growth ([3]; 2×15 mg CBZ/kg i.v. (particle dose 2×175 mg/kg), day 33 and 36) of the same compound?
**A.** markedly inhibited tumor growth

**Q.** And the “tumors in complete remission” value ([3]; 2×15 mg CBZ/kg i.v., non-palpable tumors at day 57 after implantation)?
**A.** 2 out of 9

**Q.** What about the “change of CBZ concentration in tissue from 24 to 96 h” value [4] of the same compound?
**A.** significantly lower in tumors after 96 h

**Q.** What about the “CBZ level in tumor relative to the PEBCA-CBZ group” value ([4]; 24 h) of the same compound?
**A.** about ⅓

**Q.** And the “tissue with the highest CBZ amount” value ([4]; 24 h)?
**A.** the tumor

**Q.** What about the “tissues in which CBZ could be detected (above LOQ)” value ([4]; 96 h) of the same compound?
**A.** only in the tumor tissue

**Q.** And the “CBZ concentration in tumors relative to that after PEBCA-CBZ” value ([4]; 96 h, difference not significant (p=0.18))?
**A.** approximately 50%

**Q.** And the “anti-inflammatory M2 macrophages (CD206 positive cells) in tumors” value [5]?
**A.** no response in the macrophage populations

**Q.** And the “pro-inflammatory M1 macrophages (iNOS) in tumors” value [6]?
**A.** no response in the macrophage populations

**Q.** And the “fraction of the cells surviving even very high CBZ concentrations” value [7]?
**A.** 10-20%
